Source: ChEMBL document CHEMBL1201862, “PubChem BioAssay data set” (2004)
Activity calls are given as the source filed them. Rule as the data show it: actives have a measured IC50 and inactives only a lower limit.

Molecular target: Envelope glycoprotein gp160 (Human immunodeficiency virus 1, UniProt Q6QLK5)
Experiment: inhibitors of HIV fusion peptide binding, primary screen, biochemical, uHTS, fluorescence dequenching (AID 1986)

Chain of Envelope glycoprotein gp160 (Q6QLK5 whole entry, the tested form may be a part): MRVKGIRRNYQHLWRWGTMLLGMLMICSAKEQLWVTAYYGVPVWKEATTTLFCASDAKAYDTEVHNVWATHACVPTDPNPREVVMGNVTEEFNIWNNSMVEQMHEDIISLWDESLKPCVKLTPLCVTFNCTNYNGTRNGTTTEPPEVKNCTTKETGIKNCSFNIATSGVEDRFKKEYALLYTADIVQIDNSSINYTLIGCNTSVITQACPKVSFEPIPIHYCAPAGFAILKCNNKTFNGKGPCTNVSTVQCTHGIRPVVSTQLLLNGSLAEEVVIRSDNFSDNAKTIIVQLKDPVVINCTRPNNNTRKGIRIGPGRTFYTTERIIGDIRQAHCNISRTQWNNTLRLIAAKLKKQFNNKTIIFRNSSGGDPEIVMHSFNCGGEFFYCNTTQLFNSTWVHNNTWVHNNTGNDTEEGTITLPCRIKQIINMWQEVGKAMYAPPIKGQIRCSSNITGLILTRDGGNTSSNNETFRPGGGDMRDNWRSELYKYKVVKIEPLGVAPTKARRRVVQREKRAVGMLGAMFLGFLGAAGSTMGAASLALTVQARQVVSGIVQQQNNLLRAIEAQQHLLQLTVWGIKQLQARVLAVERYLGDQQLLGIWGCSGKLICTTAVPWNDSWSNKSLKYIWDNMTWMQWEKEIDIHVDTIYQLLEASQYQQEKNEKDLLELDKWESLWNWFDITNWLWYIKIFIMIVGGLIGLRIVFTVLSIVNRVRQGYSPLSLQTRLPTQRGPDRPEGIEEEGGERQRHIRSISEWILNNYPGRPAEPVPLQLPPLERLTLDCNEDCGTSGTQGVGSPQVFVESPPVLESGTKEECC

Row | Structure (SMILES) | IC50
1 | COc1ccc(OC)c(N2C(=O)/C(=C/c3ccco3)C(=O)NC2=S)c1 | 12.6 µM (active)
2 | N#Cc1c(O)nc(SCC(=O)N2c3ccccc3Sc3ccccc32)nc1-c1ccccc1 | 13.1 µM (active)
3 | O=C1NN(c2ccc(Cl)cc2)C(=O)/C1=C\c1ccc(-c2cccc(C(=O)O)c2)o1 | 11.9 µM (active)
